The values that follow come from patent US7871805B2, “Glucose dehydrogenase” (Toyo Boseki Kabushiki Kaisha, priority 2006, dated 2011).

Read-outs that look alike come from different tables or passages of the source.

The test system of experiment [1] is GDH derived from NBRC6231. Kind of experiment: Substrate specificity of purified GDH (DCPIP activity assay). The following applies: for Relative activity: substrate final concentration 4 mM, activity using glucose as substrate made 100%; for action of enzyme upon substrate (in words): substrate 4 mM. The format is biochemical, Penicillium lilacinoechinulatum. The method, then:
(§1) The present invention is also characterized by high substrate specificity, the action upon maltose is less than 1% of the action upon glucose, and the action upon galactose is less than 2% of the action upon glucose. The action referred to herein indicates the GDH activity at a substrate concentration of 4 mM, it is measured according to Test Example described later, and in a reaction solution composition used, for the substrate concentration, the final concentration is adjusted to 4 mM.
(§2) A reaction reagent is made by mixing 15.8 mL of the PIPES buffer, 0.2 mL of the DCPIP solution and 4 mL of the D-glucose solution.
(§3) The reaction reagent (2.9 mL) is preliminarily heated at 37° C. for 5 minutes. The GDH solution (0.1 mL) is added and gently mixed, subsequently the change of absorbance at 600 nm is recorded for 5 minutes using a spectrophotometer controlled to 37° C. using water as a control, and the change of absorbance per one minute (ΔODTEST) is calculated from a linear portion of the record. The solvent in which GDH will be dissolved in place of the blinded GDH solution is added to the reagent mixture, and the change of absorbance (ΔODBLANK) per one minute is measured. The GDH activity is calculated from these values according to the following formula. One unit (U) in the GDH activity is defined as the amount of the enzyme which reduces 1 μmol DCPIP for one minute in the presence of 200 mM D-glucose. Activity (U/mL)=[—(ΔODTEST−ΔODBLANK)×3.0×dilution scale]/(16.3×0.1×1.0)
(§4) In order to know the substrate specificity of the purified GDH solutions derived from NBRC6231 and NBRC32032 obtained in Example 1, the activity was measured using the reaction reagent in which the substance shown in Table had been dissolved at a final concentration of 4 mM.

In experiment [2] the test system is GDH derived from NBRC32032. Described as above. The note with it: for Relative activity: substrate final concentration 4 mM, activity using glucose as substrate made 100%; for action of enzyme upon substrate (in words): substrate 4 mM. The format is biochemical, Penicillium italicum. The protocol:
as §1, §2, §3, §4

Experiment [3] has as its system GDH derived from NBRC32032. Kind of experiment: Effects of chemicals on GDH activity. It counts as biochemical, Penicillium italicum.
Experiment [4] deals with GDH derived from NBRC6231. Kind of experiment: Effects of chemicals on GDH activity. The format is biochemical, Penicillium lilacinoechinulatum.
Where [5] appears, read: additive final concentration 2 mM, activity with no chemical made 100, GDH from NBRC6231.
Where [6] appears, read: 2 mM, inhibited = 10% or more activity lowering, strong = 50% or more, GDH from NBRC6231.
[7] abbreviates: 2 mM, inhibited = 10% or more activity lowering, strong = 50% or more, GDH from NBRC32032.
[8] abbreviates: additive final concentration 2 mM, activity with no chemical made 100, GDH from NBRC32032.

As to `O=C[C@@H](O)[C@H](O)[C@H](O)CO` [Arabinose], the Relative activity in experiment [1] and in experiment [2] was 0.2% in each case.

In the case of `[Cl][Fe]([Cl])[Cl]` [FeCl3, iron chloride (III)], the Relative activity in experiment [3] stood at 77.5; in experiment [4], 106. In addition, in experiment [3] (2 mM), the “inhibitory effect (in words)” value was “inhibited”.

As to `O=C(CO)[C@H](O)[C@@H](O)[C@H](O)CO` [Sorbose], the Relative activity in experiment [1] is on record as 0.1> %; in experiment [2], 0.5%.

For `O=C[C@H](O)[C@@H](O)[C@H](O)CO` [Xylose], in experiment [1], the “action of enzyme upon substrate (in words)” value (“action” below) is given as “acted upon” and the Relative activity worked out at 10.1%. For the same compound, in experiment [2], the “action” value was “acted upon” and the Relative activity was determined as 10.4%.

Take `OC[C@H]1O[C@H](O[C@H]2O[C@H](CO)[C@@H](O)[C@H](O)[C@H]2O)[C@H](O)[C@@H](O)[C@@H]1O` [Trehalose]: the Relative activity in experiment [1] was 0.3%; in experiment [2], 0.1> %.

Turning to `O=C[C@H](O)[C@@H](O)[C@@H](O)[C@H](O)CO` [Galactose], the Relative activity worked out at 1.0% in experiment [1] and 0.6% in experiment [2].

For `[F-].[Na+]` [NaF], the results for the Relative activity in experiment [3] and in experiment [4] (setting [5]) were 102 and 111, respectively.

As for `[Cl-].[Cl-].[Mg+2]` [MgCl2], the Relative activity is listed as 102 in experiment [3] and 99.7 in experiment [4] (setting [5]).

On to `O=C[C@H](O)[C@H](O)[C@H](O)CO` [Ribose], for which the Relative activity in experiment [1] was 0.1> %; in experiment [2], 0.2%.

Consider Maltotriose, for which the Relative activity in experiment [1] is recorded as 0.2%; in experiment [2], 1.0%.

For the compound `O=C(O)CI` [Monoiodoacetic acid], the Relative activity was 73.3 in experiment [3] and 68.7 in experiment [4]. For the same compound, the “inhibitory effect (in words)” value in experiment [3] and in experiment [4] was “inhibitory effect” in each case.

`O=C(CO)[C@@H](O)[C@H](O)[C@H](O)CO` [Fructose]: the Relative activity is listed as 0.2% in experiment [1] and 0.3% in experiment [2].

As to `O=[N+]([O-])[O-].[Ag+]` [AgNO3, silver nitrate], the Relative activity in experiment [3] was determined as 15.0; in experiment [4] (setting [5]), 20.9. Also, the “inhibitory effect (in words)” value in experiment [3] and in experiment [4] (setting [6]) was “strong inhibitory effect” throughout.

With `OC[C@H]1O[C@@](CO)(O[C@H]2O[C@H](CO)[C@@H](O)[C@H](O)[C@H]2O)[C@@H](O)[C@@H]1O` [Sucrose], the Relative activity in experiment [1] is on record as 0.6%; in experiment [2] it was 1.1%.

Consider `NO` [Hydroxylamine], for which the “inhibitory effect (in words)” value in experiment [3] (setting [7]) and in experiment [4] (setting [6]) was “inhibitory effect” in each case. In addition, the Relative activity in experiment [3] (setting [8]) is given as 79.1; in experiment [4] (setting [5]) it was 81.5.

As to `[N-]=[N+]=[N-].[Na+]` [NaN3, sodium azide], the Relative activity in experiment [3] amounted to 97.8; in experiment [4] (setting [5]), 89.3. Also, the “inhibitory effect (in words)” value in experiment [4] (setting [6]) is recorded as “inhibited”.

Take `NC(=O)CI` [Iodoacetamide]: the Relative activity is 101 in experiment [3] and 111 in experiment [4].

Take `c1ccc(-c2ccccn2)nc1` [α,α′-dipyridyl]: the Relative activity came out at 102 in experiment [3] and 109 in experiment [4].

Turning to `OC[C@H]1O[C@@](CO)(O[C@H]2O[C@H](CO)[C@@H](O)[C@H](O)[C@H]2O)[C@@H](O[C@H]2O[C@H](CO)[C@@H](O)[C@H](O)[C@H]2O)[C@@H]1O` [Melezitose], the Relative activity in experiment [1] is 0.2%; in experiment [2], 0.5%.

Turning to `OCC(O)CO` [Glycerin], the results for the Relative activity in experiment [1] and in experiment [2] were 0.1> % and 1.7%, respectively.

On to `CC(=O)[O-].CC(=O)[O-].[Cd+2]` [Cd(OAc)2, cadmium acetate], for which the Relative activity in experiment [3] is reported as 41.4; in experiment [4] (setting [5]), 41.0. Moreover, the “inhibitory effect (in words)” value in experiment [3] and in experiment [4] (setting [6]) was “strong inhibitory effect” each time.

In the case of `[Cl][Mn][Cl]` [MnCl2], the Relative activity in experiment [3] was found to be 99.1; in experiment [4] (setting [5]), 93.4.

For `OC[C@H]1O[C@H](O[C@H]2[C@H](O)[C@@H](O)C(O)O[C@@H]2CO)[C@H](O)[C@@H](O)[C@@H]1O` (mixture of isomers) [Maltose], the Relative activity is given as 0.5% in experiment [1] and 0.2% in experiment [2].

Take `c1cnc2c(c1)ccc1cccnc12` [o-phenanthroline]: the Relative activity in experiment [3] was 103; in experiment [4] it was 106.

Regarding `O=C(O)CN(CCN(CC(=O)O)CC(=O)O)CC(=O)O` [EDTA], the Relative activity in experiment [3] is 104; in experiment [4], 113.

As for `O=CC[C@@H](O)[C@H](O)[C@H](O)CO` [2-deoxy-D-glucose], the “action” value in experiment [1] and in experiment [2] was “acted upon” in each case. In addition, the Relative activity was 14.3% in experiment [1] and 17.2% in experiment [2].

For the compound `OB(O)O` [Borate], the Relative activity in experiment [3] was 102; in experiment [4] (setting [5]), 111.

`CCN1C(=O)C=CC1=O` [N-ethylmaleimide]: the “inhibitory effect (in words)” value in experiment [3] (setting [7]) and in experiment [4] (setting [6]) was “inhibitory effect” throughout. Moreover, the results for the Relative activity in experiment [3] (setting [8]) and in experiment [4] (setting [5]) were 87.8 and 86.8, respectively.

Regarding `[Cl-].[Cl-].[Co+2]` [CoCl2], the Relative activity in experiment [3] came to 102; in experiment [4], 94.1.

For `[Ca+2].[Cl-].[Cl-]` [CaCl2], the Relative activity in experiment [3] and in experiment [4] (setting [5]) was 103 in each case.

For the compound `O=S(=O)([O-])[O-].[Cu+2]` [CuSO4, copper sulfate], the results for the Relative activity in experiment [3] and in experiment [4] (setting [5]) were 4.5 and 2.2, respectively. Moreover, the “inhibitory effect (in words)” value in experiment [3] and in experiment [4] (setting [6]) was “strong inhibitory effect” throughout.

`[Cl-].[Cl-].[Zn+2]` [ZnCl2]: the results for the Relative activity in experiment [3] and in experiment [4] (setting [5]) were 75.1 and 76.2, respectively.

As to `[Cl][Ni][Cl]` [NiCl2], the figures for the Relative activity in experiment [3] and in experiment [4] (setting [5]) were 101 and 96.6, respectively.

`CC(=O)[O-].CC(=O)[O-].[Ba+2]` [Ba(OAc)2]: the Relative activity in experiment [3] and in experiment [4] (setting [5]) was 106 throughout.

For the compound `OC[C@H]1O[C@H](O[C@H]2[C@H](O)[C@@H](O)[C@@H](O[C@H]3[C@H](O)[C@@H](O)[C@@H](O[C@H]4[C@H](O)[C@@H](O)C(O)O[C@@H]4CO)O[C@@H]3CO)O[C@@H]2CO)[C@H](O)[C@@H](O)[C@@H]1O` (stereo partly shown) [Maltotetraose], the figures for the Relative activity in experiment [1] and in experiment [2] were 0.1> % and 1.6%, respectively.
